{"source": "patent US20150212068A1", "about": "“Cholyl-L-Lysyl-Fluorescein Assay” (Novassay SA, priority 2012, published 2015)", "key": {"[1]": {"assay": "Stability of CLF in human plasma at room temperature and 4° C. after 30 min pre-incubation in whole blood at 37° C. (Test 2), HPLC-MS/MS", "format": "in vitro ADME", "details": "for CLF concentration: plasma after 30 min blood pre-incubation at 37° C., mean ± SEM (n = 2); for percentage of compound remaining (by comparing with content at To), lowest over incubation / CLF remaining: plasma after blood pre-incubation; for percentage of compound remaining (by comparing with content at To), lowest over incubation: up to 24 h; for CLF remaining: vs To", "method": "Eighty microliters (80 μl) of the working solution of CLF were added to 8 ml of human EDTA blood. The final concentration of CLF in blood was of 100 ng/ml. Then, sample was incubated at 37° C. in water bath for 30 min and plasma was prepared as described previously. Plasma was then divided into two equal fractions of 2 ml each. One fraction was incubated at room temperature and the second one was incubated at 4° C. in a cold room. Two aliquots of 200 μl were taken from both fractions just before incubation and after 30 min, 120 min and 24 h of incubation. Samples were stored at −70° C. until further analysis. […] Thus, a stock solution of IS at 100 μg/ml in acetonitrile was 50-fold diluted in acetonitrile in order to obtain a final concentration of 2 μg/ml. Then, 200 μl of this solution were added to each plasma sample in order to precipitate the proteins. Samples were vortexed/mixed and centrifuged 5 min at 20,000 g (4° C.). After centrifugation, the clear supernatant (around 250 μl) was transferred into 1.2 ml HPLC glass vials and sealed. Samples were placed into the refrigerated autosampler and 20 μl were injected into the HPLC-MS/MS system. Test samples were injected twice. […] The injected volume of sample was 20 μl and the “full loop” mode was applied. The temperature of the analytical column was kept at 30° C. CLF and its IS were separated on an Acclaim 120 C18 column (5 μm, 2.1×100 mm, Dionex) by elution with a linear gradient of acetonitrile in water as described in Table 6. An ion trap mass spectrometer equipped with an ESI interface was operated in the positive ionization mode. For each compound, the most abundant ion formed in MS was selected for MS/MS fragmentations. In order to increase the sensitivity and the specificity of the method, the MRM mode was selected. The most specific daughter ions formed in MS/MS were used for quantification."}, "[2]": {"assay": "Stability of buffer-based CLF standards after 4 weeks storage at 2-8° C., CLF ELISA", "format": "physicochemical", "details": "for mean OD, fresh: freshly made; for decrease in immunoreactivity: buffer-based CLF standards", "method": "These conditions were used for all assays described in Phase 2a (above) and Phase 2b (below). See Appendix B and C for buffer and conjugate formulations respectively: • Add 25 μl/well of sample or standard (0-1000 ng/ml CLF in Buffer #24) to the wells of a streptavidin-coated microtitre plate (NovAssay, F2SAC). • Add 100 μl/well of fluorescein-biotin (Sigma B9431) at 20 ng/ml in Buffer #24+0.2% w/v ANS (Sigma 10417). • Add 100 μl/well of anti-fluorescein HRP (NovAssay, DV047/17-3) at 100 ng/ml in Buffer #24. • Incubate the plate for 30 minutes at room temperature. • Wash the plate 3 times with 800 μl/well Buffer #29 and tap the plate dry. • Add 100 μl/well of SureBlue Reserve TMB Substrate (KPL) and incubate the plate for 10 minutes at room temperature. • Stop the substrate reaction by adding 100 μl/well of 1M HCl and read the absorbance at 450 nm wavelength (ThermoFisher Scientific, Multiskan FC).\nStandards were prepared by spiking CLF into buffer (6 standards having a concentration span of 0 to 1000 ng/ml). The standards were stored at 2-8° C. for 4 weeks. They were then taken out of the fridge and assayed alongside standards that were freshly made."}, "[3]": {"details": "room temperature (25 ± 2° C.), 0.0 hours"}, "[4]": {"details": "room temperature (25 ± 2° C.), 0.5 hours"}, "[5]": {"details": "room temperature (25 ± 2° C.), 2.0 hours"}, "[6]": {"details": "room temperature (25 ± 2° C.), 24.0 hours"}, "[7]": {"details": "Fresh std 16 ng/ml, 4 weeks at 2-8° C."}, "[8]": {"details": "Fresh std 31 ng/ml, 4 weeks at 2-8° C."}, "[9]": {"details": "Fresh std 63 ng/ml, 4 weeks at 2-8° C."}, "[10]": {"details": "Fresh std 125 ng/ml, 4 weeks at 2-8° C."}, "[11]": {"details": "Fresh std 250 ng/ml, 4 weeks at 2-8° C."}, "[12]": {"details": "Fresh std 500 ng/ml, 4 weeks at 2-8° C."}, "[13]": {"details": "Fresh std 1000 ng/ml, 4 weeks at 2-8° C."}}, "note": "“Also recorded” adds a separate entry of the source."}
{"smiles": "CC(CCC(=O)NC(CCCCNC(=S)Nc1ccc(-c2c3ccc(=O)cc-3oc3cc(O)ccc23)c(C(=O)O)c1)C(=O)O)C1CCC2C3C(O)CC4CC(O)CCC4(C)C3CC(O)C12C", "note": "[CLF, Cholyl-L-Lysyl-Fluorescein]", "values": [{"measurement": "plasmatic concentrations measured", "setting": "[1]; blood spiked with 100 ng/ml, plasma at 4° C. and room temperature, 0-24 h", "value": "147.7 to 164.9", "unit": "ng/mL"}, {"measurement": "CLF concentration", "setting": "[1]; 4° C., 0.0 hours", "value": "163.3 ± 3.6", "unit": "ng/mL"}, {"measurement": "CLF concentration", "setting": "[1]; 4° C., 0.5 hours", "value": "155.4 ± 7.0", "unit": "ng/mL"}, {"measurement": "CLF concentration", "setting": "[1]; 4° C., 2.0 hours", "value": "164.9 ± 4.2", "unit": "ng/mL"}, {"measurement": "CLF concentration", "setting": "[1]; 4° C., 24.0 hours", "value": "152.7 ± 4.2", "unit": "ng/mL"}, {"measurement": "CLF concentration", "setting": "[1]; [3]", "value": "163.3 ± 3.6", "unit": "ng/mL"}, {"measurement": "CLF concentration", "setting": "[1]; [4]", "value": "159.3 ± 0.6", "unit": "ng/mL"}, {"measurement": "CLF concentration", "setting": "[1]; [5]", "value": "151.1 ± 0.8", "unit": "ng/mL"}, {"measurement": "CLF concentration", "setting": "[1]; [6]", "value": "147.7 ± 3.7", "unit": "ng/mL"}, {"measurement": "percentage of compound remaining (by comparing with content at To), lowest over incubation", "setting": "[1]; 4° C.", "value": "≥ 93.5", "unit": "%"}, {"measurement": "percentage of compound remaining (by comparing with content at To), lowest over incubation", "setting": "[1]; room temperature", "value": "at least 90.5%"}, {"measurement": "CLF remaining", "setting": "[1]; 4° C., 0.0 hours", "value": 100.0, "unit": "%"}, {"measurement": "CLF remaining", "setting": "[1]; 4° C., 0.5 hours", "value": 95.2, "unit": "%"}, {"measurement": "CLF remaining", "setting": "[1]; 4° C., 2.0 hours", "value": 101.0, "unit": "%"}, {"measurement": "CLF remaining", "setting": "[1]; 4° C., 24.0 hours", "value": 93.5, "unit": "%"}, {"measurement": "CLF remaining", "setting": "[1]; [3]", "value": 100.0, "unit": "%"}, {"measurement": "CLF remaining", "setting": "[1]; [4]", "value": 97.6, "unit": "%"}, {"measurement": "CLF remaining", "setting": "[1]; [5]", "value": 92.5, "unit": "%"}, {"measurement": "CLF remaining", "setting": "[1]; [6]", "value": 90.5, "unit": "%"}, {"measurement": "CLF stability in plasma after pretreatment of whole blood at 37° C.", "setting": "[1]; room temperature and 4° C., up to 24 hours", "value": "stable during 24 h; also recorded: stable under these conditions"}, {"measurement": "4-week stds", "setting": "[2]; [7]", "value": 5, "unit": "ng/mL"}, {"measurement": "% change in CLF immunoreactivity", "setting": "[2]; [7]", "value": "−67", "unit": "%"}, {"measurement": "4-week stds", "setting": "[2]; [8]", "value": 17, "unit": "ng/mL"}, {"measurement": "% change in CLF immunoreactivity", "setting": "[2]; [8]", "value": "−44", "unit": "%"}, {"measurement": "4-week stds", "setting": "[2]; [9]", "value": 38, "unit": "ng/mL"}, {"measurement": "% change in CLF immunoreactivity", "setting": "[2]; [9]", "value": "−40", "unit": "%"}, {"measurement": "4-week stds", "setting": "[2]; [10]", "value": 72, "unit": "ng/mL"}, {"measurement": "% change in CLF immunoreactivity", "setting": "[2]; [10]", "value": "−42", "unit": "%"}, {"measurement": "4-week stds", "setting": "[2]; [11]", "value": 162, "unit": "ng/mL"}, {"measurement": "% change in CLF immunoreactivity", "setting": "[2]; [11]", "value": "−35", "unit": "%"}, {"measurement": "4-week stds", "setting": "[2]; [12]", "value": 359, "unit": "ng/mL"}, {"measurement": "% change in CLF immunoreactivity", "setting": "[2]; [12]", "value": "−28", "unit": "%"}, {"measurement": "4-week stds", "setting": "[2]; [13]", "value": 685, "unit": "ng/mL"}, {"measurement": "% change in CLF immunoreactivity", "setting": "[2]; [13]", "value": "−31", "unit": "%"}, {"measurement": "mean OD, 4-week old stds", "setting": "[2]; buffer standard 16 ng/ml, 4 weeks at 2-8° C.", "value": 3.219}, {"measurement": "mean OD, fresh", "setting": "[2]; buffer standard 16 ng/ml", "value": 2.745}, {"measurement": "mean OD, 4-week old stds", "setting": "[2]; buffer standard 31 ng/ml, 4 weeks at 2-8° C.", "value": 2.699}, {"measurement": "mean OD, fresh", "setting": "[2]; buffer standard 31 ng/ml", "value": 2.265}, {"measurement": "mean OD, 4-week old stds", "setting": "[2]; buffer standard 63 ng/ml, 4 weeks at 2-8° C.", "value": 2.133}, {"measurement": "mean OD, fresh", "setting": "[2]; buffer standard 63 ng/ml", "value": 1.653}, {"measurement": "mean OD, 4-week old stds", "setting": "[2]; buffer standard 125 ng/ml, 4 weeks at 2-8° C.", "value": 1.577}, {"measurement": "mean OD, fresh", "setting": "[2]; buffer standard 125 ng/ml", "value": 0.884}, {"measurement": "mean OD, 4-week old stds", "setting": "[2]; buffer standard 250 ng/ml, 4 weeks at 2-8° C.", "value": 0.953}, {"measurement": "mean OD, fresh", "setting": "[2]; buffer standard 250 ng/ml", "value": 0.661}, {"measurement": "mean OD, 4-week old stds", "setting": "[2]; buffer standard 500 ng/ml, 4 weeks at 2-8° C.", "value": 0.528}, {"measurement": "mean OD, fresh", "setting": "[2]; buffer standard 500 ng/ml", "value": 0.419}, {"measurement": "mean OD, 4-week old stds", "setting": "[2]; buffer standard 1000 ng/ml, 4 weeks at 2-8° C.", "value": 0.317}, {"measurement": "mean OD, fresh", "setting": "[2]; buffer standard 1000 ng/ml", "value": 0.235}, {"measurement": "decrease in immunoreactivity", "setting": "[2]; 4 weeks at 2-8 C.", "value": "resulted in a 30-40% decrease in"}, {"measurement": "decrease in immunoreactivity", "setting": "[2]; 4 weeks at 2-8° C., vs fresh standards", "value": "30-40%"}]}
